Data published in PMC4008261, “Rewiring of regenerated axons by combining treadmill training with semaphorin3A inhibition” (Molecular Brain, 2014).

What was measured:
semaphorin3A = target: T1, semaphorin3A (Homo sapiens, UniProt Q14563); experiment: Growth cone collapse assay, E14 rat DRG; type: cell-based; conditions: read-out: semaphorin3A inhibiting activity, IC50
T1 sequence (Q14563 21-771): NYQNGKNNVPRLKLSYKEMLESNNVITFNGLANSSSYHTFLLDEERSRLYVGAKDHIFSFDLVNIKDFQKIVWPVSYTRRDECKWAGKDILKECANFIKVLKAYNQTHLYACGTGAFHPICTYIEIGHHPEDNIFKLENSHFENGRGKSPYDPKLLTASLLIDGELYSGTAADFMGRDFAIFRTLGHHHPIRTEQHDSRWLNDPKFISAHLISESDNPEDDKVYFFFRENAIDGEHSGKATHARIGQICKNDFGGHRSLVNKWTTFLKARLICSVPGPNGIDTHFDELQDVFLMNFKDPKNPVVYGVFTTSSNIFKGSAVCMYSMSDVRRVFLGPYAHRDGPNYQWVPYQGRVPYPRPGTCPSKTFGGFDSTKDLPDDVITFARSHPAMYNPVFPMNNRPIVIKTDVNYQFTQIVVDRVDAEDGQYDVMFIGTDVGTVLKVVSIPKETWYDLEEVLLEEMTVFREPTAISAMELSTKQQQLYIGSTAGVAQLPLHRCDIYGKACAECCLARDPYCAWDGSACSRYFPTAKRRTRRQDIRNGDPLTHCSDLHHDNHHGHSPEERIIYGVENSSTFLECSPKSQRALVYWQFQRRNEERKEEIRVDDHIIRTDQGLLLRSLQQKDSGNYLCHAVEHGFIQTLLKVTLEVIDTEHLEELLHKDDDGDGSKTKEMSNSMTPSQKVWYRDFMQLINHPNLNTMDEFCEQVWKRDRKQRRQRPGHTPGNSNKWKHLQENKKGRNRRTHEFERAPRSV
Description: The growth cone collapse assay and collagen co-culture experiments were performed as previously described. To examine the effects of SM-345431-silicone, small pieces (2 × 1 × 0.3 mm; approximately 1 mg containing 1 μg of SM-345431) of the SM-345431-silicone or control-silicone were placed in a collagen gel adjacent to E8 chick DRGs and COS7 cell aggregates, as shown in Figure 1C.

SCT adult rats = experiment: Kinematic analysis of hindlimb motor performance on a treadmill; type: in vivo, rat
Description: Rats were randomly divided into the following three experimental groups: 1) untrained + placebo, 2) untrained + SM-345431 and 3) trained + SM-345431. SCT was performed, and SM-345431 or placebo was administered at the lesion site via the newly developed DDS, which is described in detail below. Starting 1 week post-injury, treadmill training commenced with a BSS. Kinematic tests were performed monthly for 3 months after SCT using a rodent robotic device (Rodent robot 3000, Robomedica Inc.) that primarily assessed the performance of plantar stepping on a treadmill. Treadmill training was continued throughout the experimental period.
A robotic device (rodent robot 3000, Robomedica Inc.) was used to train the SCT rats. Briefly, the device consisted of a computer-controlled BSS, two lightweight robotic arms and a treadmill with variable motorized speeds. The ankles of the hindlimbs of rats were held with a pair of releasable rope cuffs, which were then secured to robotic arms to track ankle trajectory in the horizontal and vertical directions. A computer-controlled body support arm was used to control the load that was applied to the hindlimbs and to maintain body equilibrium. Rats were secured in a cloth vest and attached to the body support arm with a hook-and-loop fabric. Hard rope cuffs were attached to the hindlimbs of rats with the robotic arm during training.
Additionally, improvements in motor performance were more obvious when the treadmill training was initiated at earlier time points after SCT. Therefore, training was initiated as early as 1 week after SCT. The fixed parameters were set at 50% body weight support (BWS), 20 min/day and 5 days/week. The animals were adapted to the training via increasing velocity; a velocity of 1 cm/s was used in the first week, and then the velocity was increased by 2 cm/s every 2 weeks for the first 2 months after injury (i.e., 1 cm/s to 3 cm/s to 5 cm/s). […] Once the rats dragged their hindlimbs and stopped walking on the treadmill, a trainer brought their bodies back to the original walking position. The step ability of SCT rats on the treadmill improved gradually over the course of the first 2 months following injury. However, this improvement was attenuated at time points later than 2 months after injury.
To evaluate the locomotor capability of SCT rats in detail, the aforementioned robotic device was employed. Each robotic arm tracked the two-dimensional movement of the ankle, and the trajectory of the ankle movement was then recorded on a computer for kinematic analyses. Not all the rats were able to walk by themselves on the treadmill by the last time point of the experiment. Therefore, when performing the tests, the degree of BWS and treadmill speed were titrated to obtain the maximum walking performance on the treadmill. As a result of this titration, the behavioral tests were performed at 70% BWS and a treadmill velocity of 1 cm/s each month after SCT. The duration of testing was 1 min per rat to minimize training effects during testing. The methods of previous reports were followed with slight adaptations. Briefly, the ankle trajectory in each plane was recorded by the robotic arm and a computer. Then, the toe off (TO) and paw contact (PC) events in each step cycle were identified using Rodent Robot 3000 software. All kinematic characteristics were obtained when TO and PC were identified; as a result, parameters such as the duration phase, the swing phase of the step cycle and the length and height of the step were calculated. The number of animals used in these behavioral tests was 32 (control: n = 9, SM-345431: n = 12, combined: n = 11).

[1] = SM-345431 alone, 70% BWS, 1 cm/s

In the case of `CC(=O)c1cc2c(=O)c3c(C(=O)O)c(O)c(O)cc3oc2c(C(C)=O)c1-c1coc2cc(O)c(O)c(C(=O)O)c2c1=O` [SM-345431, Vinaxanthone], the IC50 (semaphorin3A) is reported as 100 to 200 nM, the “plantar step walking on a treadmill with the BSS” value (SCT adult rats; SM-345431 alone, without extensive treadmill training) is reported as “did not result in plantar step walking” and the “effect on the step height parameter” value (SCT adult rats; [1]) is reported as “moderate and statistically insignificant”. The “locomotor function on a treadmill, step length parameters (average and maximum)” value (SCT adult rats; [1]) was “improved locomotor function”, the “step cycle area versus control SCT rats” value (SCT adult rats; SM-345431 alone, P < 0.05 at 3 months) was “statistically significant enhancement” and the “effect on the step height parameter (average and maximum)” value (SCT adult rats; SM-345431 combined with extensive treadmill training) was “greater enhancement was observed”. For the same molecule, the “duration of continuous plantar step walking on a treadmill with the BSS” value (SCT adult rats; SM-345431 combined with extensive treadmill training, all rats) was “at least 30 min” and the “step cycle area versus control SCT rats” value (SCT adult rats; SM-345431 combined with treadmill training, P < 0.05 first month, P < 0.01 second and third month) was “even greater improvement”.
